Experimental data from patent publication US11248006B2, “Macrocyclic derivative of pyrazol[3,4-d]pyrimidin-3-one, pharmaceutical composition and use thereof” (SHANGHAI DE NOVO PHARMATECH CO., LTD., priority 2017, dated 2022).

Experiments:
Wee1 [1] = molecular target: T1, Wee1 (Homo sapiens (Human), UniProt P30291); assay: Cell activity of Wee1 by p-CDK1Y15 ELISA assay in WiDr cells; type: cell-based; conditions: amount of p-CDK1Y15, human colon adenocarcinoma cell line WiDr, 24 hours incubation
T1 sequence (P30291 whole entry): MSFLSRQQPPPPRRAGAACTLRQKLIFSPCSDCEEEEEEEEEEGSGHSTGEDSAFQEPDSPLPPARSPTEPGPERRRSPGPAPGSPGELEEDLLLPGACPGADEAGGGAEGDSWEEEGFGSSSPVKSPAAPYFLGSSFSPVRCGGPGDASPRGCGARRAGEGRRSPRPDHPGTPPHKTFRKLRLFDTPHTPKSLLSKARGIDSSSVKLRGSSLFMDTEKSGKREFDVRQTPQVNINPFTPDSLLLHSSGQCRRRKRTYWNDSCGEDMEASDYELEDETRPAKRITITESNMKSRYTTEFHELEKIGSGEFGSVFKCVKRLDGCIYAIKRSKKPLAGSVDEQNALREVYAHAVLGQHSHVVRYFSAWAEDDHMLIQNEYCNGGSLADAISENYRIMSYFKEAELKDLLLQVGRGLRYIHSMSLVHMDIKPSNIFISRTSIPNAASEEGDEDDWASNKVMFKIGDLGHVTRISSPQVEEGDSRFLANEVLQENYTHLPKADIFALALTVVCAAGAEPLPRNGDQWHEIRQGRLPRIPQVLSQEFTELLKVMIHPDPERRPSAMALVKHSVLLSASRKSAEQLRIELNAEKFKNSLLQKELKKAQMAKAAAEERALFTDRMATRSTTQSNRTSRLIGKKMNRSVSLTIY
Procedure: In the present disclosure, cellular assays were used to assess the biological activity of the compound. This assay was conducted using the human colon adenocarcinoma cell line WiDr. The activity of a specific Wee1 inhibitor was evaluated using p-CDK1Y15 ELISA assay method. The detailed assay method is described as follows:
WiDr cells were cultured in Dulbecco's Modified Eagle's medium containing 10% FBS at 37° C. and 5% CO2. Compound concentrations ranged from 0.5 nM to 30 μM. The compound was diluted, added to a 24-well plate and incubated with the cells for 24 hours. DMSO was used as a negative control. A known Wee1 inhibitor was added as a positive control in some assays. According to the instruction of the manufacturer, in the p-CDK1Y15 assay, cells were lysed and tested by a colorimetric ELISA kit to determine the amount of p-CDK1Y15. The optical density was measured using a spectrophotometer. The OD data was analyzed using Graphpad software to obtain a fitted curve of IC50 values against the compounds.

Wee1 [2] = molecular target: T1, Wee1; assay: Wee1 enzyme catalysis assay (ATP-Glo Max kinase luminescence detection kit); type: biochemical; conditions: Wee1 enzymatic activity, 10 μM ATP, Poly (Lys, Tyr) substrate, 30° C. for 50 minutes
Procedure: In the present disclosure, Wee1 enzyme catalysis assay was carried out using the ATP-Glo Max kinase luminescence detection kit (Promega). Kinase activity was assessed by quantitative detection of the amount of ATP retained in the solution following the kinase reaction. The luminescent signal in the assay is proportional to the amount of ATP and inversely proportional to the kinase activity. The concentration of the compound in the assay ranged from 0.5 nM to 30 μM. The compound was dissolved in 10% DMSO, and 5 μL of the solution was added to 50 μL of the reaction, and the concentration of DMSO in the final reaction was 1%. The reaction was carried out at 30° C. for 50 minutes. 40 mM trishydroxymetyl aminomethane, pH 7.4, 10 mM MgCl2, 0.1 mg/ml BSA, 2 mM DTT, 0.1 mg/ml Poly (Lys, Tyr) substrate, 10 μM ATP and Wee1 were contained in the reaction mixture. After the enzymatic reaction, 50 μL of ATP-Glo Max kinase luminescence detection assay solution (Promega) was added and incubated for 15 minutes at room temperature. The luminescent signal was measured using a microplate reader. In some assays, a known Wee1 inhibitor was added as a positive control. Luminance data was analyzed using Graphpad software. The difference between the luminescence intensity in the absence of Wee1 and the luminescence intensity in the presence of Wee1 was defined as 100% activity (Lut−Luc). Using the luminescence intensity signal (Lu) in the presence of the compound, the % activity was calculated as follows: % Activity={(Lut−Lu)/(Lut−Luc)}×100%, wherein, Lu=luminous intensity of the compound Non-linear regression analysis was employed to plot the dose-effect curve of % activity value and the corresponding concentrations for the series of compounds. The equation is Y=B+(TB)/1+10((Log EC50−X)×Hill Slope), Y=% activity, B=minimum activity percentage, T=maximum activity percentage, X=logarithm of compound and Hill slope=slope factor or Hill coefficient. The IC50 value was determined by the concentration of a compound that is required to obtain 50% of the maximum effect.

[3] = tested on: Human osteosarcoma cell line MG63; assay: Cell proliferation assay (CCK-8 cell viability); type: cell-based; conditions: CCK-8, 72 hours incubation
Procedure: In the present disclosure, cell assays were used to assess the biological activity of the compound. Human osteosarcoma cell line MG63 (ATCC CRL-1427) was cultured in a 96-well plate of Dulbecco's Modified Eagle's medium, supplemented with 10% fetal bovine serum and 1% (v/v) L-glutamine, and the cultivation environment was 37° C. and 5% CO2. Compound concentrations ranged from 4.5 nM to 30 μM. The Wee1 inhibitor stock solution was dissolved in DMSO, added to the medium with an indicated concentration and incubated for 72 hours. Negative control cells were only treated with vehicle. In some assays, a known Wee1 inhibitor was added as a positive control. Cell viability was measured using a Cell Counting Kit-8 (CCK-8, Sigma-Aldrich) under the instruction of the product specification. The data was analyzed using Graphpad software to obtain a fitted curve of IC50 values against the compounds.

CN1CCC(n2ccc3cc(Nc4ncc5c(=O)n6n(c5n4)-c4ccc5c(n4)N(CCC/C=C\C6)C(=O)CO5)ccc32)CC1 [Compound 3-7-5] gave an IC50 (Wee1 [1]) of 0.0388 µM, an IC50 (Wee1 [2]) of 0.0039 µM and an IC50 ([3]; Homo sapiens, MG-63, 72 h) of 0.0604 µM.
Work on C=CCCCCN1C(=O)COc2ccc(-n3c4nc(SC)ncc4c(=O)n3CC=C)nc21 [Compound 3-1-1] yielded an IC50 (Wee1 [1]) of 0.336 µM, an IC50 (Wee1 [2]) of 0.0049 µM and an IC50 [3] of 1.15 µM.
For CN1CCN(c2ccc(Nc3ncc4c(=O)n5n(c4n3)-c3ccc4c(n3)N(CCC/C=C\C5)C(=O)CO4)cc2)CC1 [Compound 3-3-7], the IC50 (Wee1 [1]) was 0.25 µM, the IC50 (Wee1 [2]) was 0.013 µM and the IC50 ([3]; Homo sapiens, MG-63, 72 h) was 0.571 µM.
COc1cc(Nc2ncc3c(=O)n4n(c3n2)-c2ccc3c(n2)N(CCC/C=C\C4)C(=O)CO3)ccc1N1CCN(C)CC1 [Compound 3-3-2] was tested, and the IC50 (Wee1 [1]) was 0.114 µM, the IC50 (Wee1 [2]) was 0.0033 µM and the IC50 ([3]; Homo sapiens, MG-63, 72 h) was 0.567 µM.
For CN1Cc2cc(Nc3ncc4c(=O)n5n(c4n3)-c3ccc4c(n3)N(CCC/C=C\C5)C(=O)CO4)ccc2C2(CC2)C1 [Compound 3-2-2], the IC50 (Wee1 [1]) was 0.139 µM, the IC50 (Wee1 [2]) was 0.011 µM and the IC50 [3] was 0.261 µM.
Compound O=C1COc2ccc3nc2N1CCC/C=C\Cn1c(=O)c2cnc(Nc4ccc5c(ccn5C5CCN(CCO)CC5)c4)nc2n1-3 [Compound 3-7-10] has an IC50 (Wee1 [2]) of 0.0085 µM and an IC50 ([3]; Homo sapiens, MG-63, 72 h) of 0.0564 µM.
CN1CCN(c2cc(Nc3ncc4c(=O)n5n(c4n3)-c3ccc4c(n3)N(CCC/C=C\C5)C(=O)CO4)cc3c2ccn3C)CC1 [Compound 3-7-16] was tested, and the IC50 (Wee1 [1]) was 0.0314 µM and the IC50 ([3]; Homo sapiens, MG-63, 72 h) was 0.0991 µM.
Work on CC(C)N1CCC(n2ccc3cc(Nc4ncc5c(=O)n6n(c5n4)-c4ccc5c(n4)N(CCC/C=C\C6)C(=O)CO5)ccc32)CC1 [Compound 3-7-7] yielded an IC50 (Wee1 [1]) of 0.0514 µM, an IC50 (Wee1 [2]) of 0.0066 µM and an IC50 [3] of 0.0443 µM.
Work on CC(C)(C)OC(=O)N1CCC(n2ccc3cc(Nc4ncc5c(=O)n6n(c5n4)-c4ccc5c(n4)N(CCC/C=C\C6)C(=O)CO5)ccc32)CC1 [Compound 3-7-3] yielded an IC50 (Wee1 [1]) of 0.0806 µM, an IC50 (Wee1 [2]) of 0.0095 µM and an IC50 [3] of 0.222 µM.
CN1CCN(c2ccc(Nc3ncc4c(=O)n5n(c4n3)-c3cccc(n3)OCCCC/C=C/C5)cc2)CC1 [Compound 1-1-1] showed an IC50 (Wee1 [2]) of 0.0067 µM and an IC50 [3] of 2.41 µM.
For CN1CCC(c2c[nH]c3cc(Nc4ncc5c(=O)n6n(c5n4)-c4ccc5c(n4)N(CCC/C=C\C6)C(=O)CO5)ccc23)CC1 [Compound 3-7-13], the IC50 (Wee1 [1]) was 0.114 µM and the IC50 ([3]; Homo sapiens, MG-63, 72 h) was 0.15 µM.
Compound CN1Cc2cc(Nc3ncc4c(=O)n5n(c4n3)-c3ccc4c(n3)N(CCO4)C(=O)CC/C=C\C5)ccc2C2(CC2)C1 [Compound 8-1-2] has an IC50 (Wee1 [2]) of 0.0044 µM and an IC50 ([3]; Homo sapiens, MG-63, 72 h) of 0.323 µM.
With CN1CCN(c2ccc(Nc3ncc4c(=O)n5n(c4n3)-c3ccc4c(n3)N(CCC/C=C\C5)C(=O)CO4)cc2CO)CC1 [Compound 3-3-1] the IC50 (Wee1 [2]) was 0.0055 µM and the IC50 [3] was 0.295 µM.
CN1Cc2cc(Nc3ncc4c(=O)n5n(c4n3)-c3cccc(n3)OCC/C=C\C5)ccc2C2(CC2)C1 [Compound 1-2-1] gave an IC50 (Wee1 [2]) of 0.0054 µM and an IC50 ([3]; Homo sapiens, MG-63, 72 h) of 0.593 µM.
For COc1cc(Nc2ncc3c(=O)n4n(c3n2)-c2ccc3c(n2)N(CCC/C=C\C4)C(=O)CO3)cc(N2CCN(C)CC2)c1 [Compound 3-3-13], the IC50 (Wee1 [1]) was 0.0688 µM and the IC50 ([3]; Homo sapiens, MG-63, 72 h) was 0.082 µM.
CN1Cc2cc(Nc3ncc4c(=O)n5n(c4n3)-c3ccc4c(n3)N(CCC/C=C\C5)C(=O)CO4)ccc2C(C)(C)C1 [Compound 3-5-1] showed an IC50 (Wee1 [2]) of 0.0024 µM and an IC50 ([3]; Homo sapiens, MG-63, 72 h) of 0.232 µM.
Work on CN1CCC(n2ccc3cc(Nc4ncc5c(=O)n6n(c5n4)-c4ccc5c(n4)N(CCC/C=C\C6)C(=O)CO5)ccc32)C1 (centres unmarked) [Compound 3-7-6] yielded an IC50 (Wee1 [2]) of 0.0096 µM and an IC50 ([3]; Homo sapiens, MG-63, 72 h) of 0.554 µM.
Compound CN1Cc2cc(Nc3ncc4c(=O)n5n(c4n3)-c3ccc4c(n3)N(CC/C=C\C5)C(=O)CO4)ccc2C2(CC2)C1 [Compound 3-2-3] has an IC50 (Wee1 [1]) of 0.326 µM and an IC50 (Wee1 [2]) of 0.0076 µM.
CS(=O)(=O)CCN1CCC(n2ccc3cc(Nc4ncc5c(=O)n6n(c5n4)-c4ccc5c(n4)N(CCC/C=C\C6)C(=O)CO5)ccc32)CC1 [Compound 3-7-9] was tested, and the IC50 (Wee1 [2]) was 0.0092 µM and the IC50 ([3]; Homo sapiens, MG-63, 72 h) was 0.193 µM.
CC(=O)N1CCC/C=C\Cn2c(=O)c3cnc(Nc4ccc5c(c4)CN(C)CC54CC4)nc3n2-c2cccc1n2 [Compound 2-2-1] gave an IC50 (Wee1 [2]) of 0.0037 µM and an IC50 ([3]; Homo sapiens, MG-63, 72 h) of 0.439 µM.
